Source: PubChem BioAssay AID2060899 (Molecular Pharmacology Branch, DTP, NCI, 2025)

Tested on: 565726-208-R1-J5-PDC complex spheroids, growth inhibition
Experiment: Anticancer human tumor 565726-208-R1-J5-PDC patient-derived pancreatic adenocarcinoma cell line growth inhibition [RAS]
Conditions: for IC50: curve of first compound; for viability, T/C: stronger effect = lower value
Summary of the method: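 Multi-cell-type spheroids: tumor cells plus HUVEC endothelial cells and mesenchymal stem cells. RAS-pathway inhibitors were combined with targeted agents, each dosed in half-log steps down from clinical Cmax, or from 10 microM when Cmax was unknown.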

[1] = second compound 0.0316 µM, first compound 0.0316 µM
[2] = second compound 0.0316 µM, first compound 0.1 µM
[3] = second compound 0.0316 µM, first compound 0.316 µM
[4] = second compound 0.0316 µM, first compound 1 µM
[5] = second compound 0.0316 µM, first compound 3.16 µM
[6] = second compound 0.0316 µM, first compound 10 µM
[7] = second compound 0.1 µM, first compound 0.0316 µM
[8] = second compound 0.1 µM, first compound 0.1 µM
[9] = second compound 0.1 µM, first compound 0.316 µM
[10] = second compound 0.1 µM, first compound 1 µM
[11] = second compound 0.1 µM, first compound 3.16 µM
[12] = second compound 0.1 µM, first compound 10 µM
[13] = second compound 0.316 µM, first compound 0.0316 µM
[14] = second compound 0.316 µM, first compound 0.1 µM
[15] = second compound 0.316 µM, first compound 0.316 µM
[16] = second compound 0.316 µM, first compound 1 µM
[17] = second compound 0.316 µM, first compound 3.16 µM
[18] = second compound 0.316 µM, first compound 10 µM
[19] = second compound 1 µM, first compound 0.0316 µM
[20] = second compound 1 µM, first compound 0.1 µM
[21] = second compound 1 µM, first compound 0.316 µM
[22] = second compound 1 µM, first compound 1 µM
[23] = second compound 1 µM, first compound 3.16 µM
[24] = second compound 1 µM, first compound 10 µM
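Further: spheroids exposed to compounds for seven days before readout.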
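Wherever viability, T/C is given: 100% = DMSO vehicle control viability.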

CC1(O)CCCC1n1c(=O)c(C(F)F)cc2cnc(NC3CCN(S(C)(=O)=O)CC3)nc21 (stereo unspecified) + C=CC(=O)N1CCN(c2nc(OCC3CCCN3C)nc3c(F)c(-c4nc(N)cc(C)c4C(F)(F)F)c(Cl)cc23)C(C)C1
IC50 (second compound 0.00316 µM): 4.25 µM
IC50 (second compound 0.01 µM): 3.86 µM
IC50 (second compound 0.0316 µM): 1.88 µM
IC50 (second compound 0.1 µM): 3.18 µM
IC50 (second compound 0.316 µM): 3.14 µM
IC50 (second compound 1 µM): 3.09 µM
viability, T/C (second compound 0.00316 µM, first compound 0.0316 µM): 84.6%
viability, T/C (second compound 0.00316 µM, first compound 0.1 µM): 101%
viability, T/C (second compound 0.00316 µM, first compound 0.316 µM): 69.9%
viability, T/C (second compound 0.00316 µM, first compound 1 µM): 77.8%
viability, T/C (second compound 0.00316 µM, first compound 3.16 µM): 67.8%
viability, T/C (second compound 0.00316 µM, first compound 10 µM): 7.33%
viability, T/C (second compound 0.01 µM, first compound 0.0316 µM): 111%
viability, T/C (second compound 0.01 µM, first compound 0.1 µM): 116%
viability, T/C (second compound 0.01 µM, first compound 0.316 µM): 71.8%
viability, T/C (second compound 0.01 µM, first compound 1 µM): 78.2%
viability, T/C (second compound 0.01 µM, first compound 3.16 µM): 73.2%
viability, T/C (second compound 0.01 µM, first compound 10 µM): 8.22%
viability, T/C [1]: 122%
viability, T/C [2]: 119%
viability, T/C [3]: 61.8%
viability, T/C [4]: 68.8%
viability, T/C [5]: 59.5%
viability, T/C [6]: 4.81%
viability, T/C [7]: 117%
viability, T/C [8]: 116%
viability, T/C [9]: 63.8%
viability, T/C [10]: 73.9%
viability, T/C [11]: 71.2%
viability, T/C [12]: 8.5%
viability, T/C [13]: 111%
viability, T/C [14]: 116%
viability, T/C [15]: 63%
viability, T/C [16]: 77.1%
viability, T/C [17]: 64.3%
viability, T/C [18]: 7.59%
viability, T/C [19]: 122%
viability, T/C [20]: 112%
viability, T/C [21]: 73.5%
viability, T/C [22]: 89%
viability, T/C [23]: 53%
viability, T/C [24]: 6.97%

CC1(C)CCC(Nc2ncc(C(F)(F)F)c(-c3c[nH]c4c(P(C)(C)=O)c(C#N)ccc34)n2)CN1 (stereo unspecified) + C=CC(=O)N1CCN(c2nc(OCC3CCCN3C)nc3c(F)c(-c4nc(N)cc(C)c4C(F)(F)F)c(Cl)cc23)C(C)C1
IC50 (second compound 0.00316 µM): 0.00676 µM
IC50 (second compound 0.01 µM): 0.00774 µM
IC50 (second compound 0.0316 µM): 0.00542 µM
IC50 (second compound 0.1 µM): 0.00576 µM
IC50 (second compound 0.316 µM): 0.00616 µM
IC50 (second compound 1 µM): 0.00681 µM
viability, T/C (second compound 0.00316 µM, first compound 0.000949 µM): 133%
viability, T/C (second compound 0.00316 µM, first compound 0.003 µM): 73.7%
viability, T/C (second compound 0.00316 µM, first compound 0.00949 µM): 40.1%
viability, T/C (second compound 0.00316 µM, first compound 0.03 µM): 40.4%
viability, T/C (second compound 0.00316 µM, first compound 0.0949 µM): 41.2%
viability, T/C (second compound 0.00316 µM, first compound 0.3 µM): 37.3%
viability, T/C (second compound 0.01 µM, first compound 0.000949 µM): 136%
viability, T/C (second compound 0.01 µM, first compound 0.003 µM): 74.6%
viability, T/C (second compound 0.01 µM, first compound 0.00949 µM): 46%
viability, T/C (second compound 0.01 µM, first compound 0.03 µM): 34.2%
viability, T/C (second compound 0.01 µM, first compound 0.0949 µM): 41.3%
viability, T/C (second compound 0.01 µM, first compound 0.3 µM): 39.9%
viability, T/C (second compound 0.0316 µM, first compound 0.000949 µM): 127%
viability, T/C (second compound 0.0316 µM, first compound 0.003 µM): 65.8%
viability, T/C (second compound 0.0316 µM, first compound 0.00949 µM): 34.2%
viability, T/C (second compound 0.0316 µM, first compound 0.03 µM): 28.4%
viability, T/C (second compound 0.0316 µM, first compound 0.0949 µM): 39.7%
viability, T/C (second compound 0.0316 µM, first compound 0.3 µM): 37.7%
viability, T/C (second compound 0.1 µM, first compound 0.000949 µM): 143%
viability, T/C (second compound 0.1 µM, first compound 0.003 µM): 67.7%
viability, T/C (second compound 0.1 µM, first compound 0.00949 µM): 33.7%
viability, T/C (second compound 0.1 µM, first compound 0.03 µM): 36.8%
viability, T/C (second compound 0.1 µM, first compound 0.0949 µM): 39%
viability, T/C (second compound 0.1 µM, first compound 0.3 µM): 36.5%
viability, T/C (second compound 0.316 µM, first compound 0.000949 µM): 130%
viability, T/C (second compound 0.316 µM, first compound 0.003 µM): 67.3%
viability, T/C (second compound 0.316 µM, first compound 0.00949 µM): 40.2%
viability, T/C (second compound 0.316 µM, first compound 0.03 µM): 32.5%
viability, T/C (second compound 0.316 µM, first compound 0.0949 µM): 38%
viability, T/C (second compound 0.316 µM, first compound 0.3 µM): 34.6%
viability, T/C (second compound 1 µM, first compound 0.000949 µM): 140%
viability, T/C (second compound 1 µM, first compound 0.003 µM): 70.2%
viability, T/C (second compound 1 µM, first compound 0.00949 µM): 41.7%
viability, T/C (second compound 1 µM, first compound 0.03 µM): 38.9%
viability, T/C (second compound 1 µM, first compound 0.0949 µM): 36.5%
viability, T/C (second compound 1 µM, first compound 0.3 µM): 38.9%

NC1c2ccccc2OC12CCN(c1cnc3c(N4CCCc5ncccc54)n[nH]c3n1)CC2 (stereo unspecified) + C#Cc1c(F)ccc2cc(O)cc(-c3ncc4c(N5CC6CCC(C5)N6)nc(OCC56CCCN5CC(F)C6)nc4c3F)c12
IC50 (second compound 0.0316 µM): > 10 µM
IC50 (second compound 0.1 µM): > 10 µM
IC50 (second compound 0.316 µM): > 10 µM
IC50 (second compound 1 µM): 0.838 µM
IC50 (second compound 3.16 µM): 0.283 µM
IC50 (second compound 10 µM): 0.0882 µM
viability, T/C [1]: 85.3%
viability, T/C [2]: 107%
viability, T/C [3]: 70.4%
viability, T/C [4]: 58.8%
viability, T/C [5]: 67.3%
viability, T/C [6]: 73.1%
viability, T/C [7]: 91.6%
viability, T/C [8]: 101%
viability, T/C [9]: 74.4%
viability, T/C [10]: 58.1%
viability, T/C [11]: 64.7%
viability, T/C [12]: 78.4%
viability, T/C [13]: 104%
viability, T/C [14]: 105%
viability, T/C [15]: 62%
viability, T/C [16]: 51.2%
viability, T/C [17]: 56.2%
viability, T/C [18]: 57.4%
viability, T/C [19]: 97.9%
viability, T/C [20]: 88.2%
viability, T/C [21]: 53.3%
viability, T/C [22]: 46.4%
viability, T/C [23]: 50.3%
viability, T/C [24]: 51.3%
viability, T/C (second compound 3.16 µM, first compound 0.0316 µM): 82.6%
viability, T/C (second compound 3.16 µM, first compound 0.1 µM): 75.3%
viability, T/C (second compound 3.16 µM, first compound 0.316 µM): 47.5%
viability, T/C (second compound 3.16 µM, first compound 1 µM): 36.4%
viability, T/C (second compound 3.16 µM, first compound 3.16 µM): 32.6%
viability, T/C (second compound 3.16 µM, first compound 10 µM): 40.4%
viability, T/C (second compound 10 µM, first compound 0.0316 µM): 63%
viability, T/C (second compound 10 µM, first compound 0.1 µM): 48.4%
viability, T/C (second compound 10 µM, first compound 0.316 µM): 29.6%
viability, T/C (second compound 10 µM, first compound 1 µM): 28.9%
viability, T/C (second compound 10 µM, first compound 3.16 µM): 28%
viability, T/C (second compound 10 µM, first compound 10 µM): 25.8%
